Experimental findings from patent publication US8431567B2 (Abbott GmbH & Co. KG, priority 2006, dated 2013) are described below.

Counter-ions that a name gives are not always drawn.

The target of this assay is T1, human vasopressin V1b receptor (Homo sapiens, UniProt P47901).
T1 construct: expressed in transfected cells; host or cells: CHO-K1 (cell line hV1b_3H2_CHO), membrane preparation
T1 sequence (P47901 1-424): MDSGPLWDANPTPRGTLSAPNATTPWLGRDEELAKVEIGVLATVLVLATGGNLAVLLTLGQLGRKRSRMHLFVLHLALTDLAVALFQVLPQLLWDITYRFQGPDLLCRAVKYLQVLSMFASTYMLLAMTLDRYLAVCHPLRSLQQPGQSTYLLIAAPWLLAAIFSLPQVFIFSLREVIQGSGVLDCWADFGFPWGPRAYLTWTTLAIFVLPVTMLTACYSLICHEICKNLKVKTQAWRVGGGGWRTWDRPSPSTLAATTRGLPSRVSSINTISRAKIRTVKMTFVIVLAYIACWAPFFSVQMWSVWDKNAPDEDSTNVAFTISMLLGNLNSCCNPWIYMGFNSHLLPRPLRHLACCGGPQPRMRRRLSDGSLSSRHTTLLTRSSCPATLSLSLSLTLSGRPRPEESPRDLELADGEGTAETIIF
Briefly: Vasopressin V1b receptor binding test. The settings on record: membranes of CHO-K1 cells, displacement of 1.5 nM 3H-AVP. In a few lines: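 Radioligand competition binding to human V1b receptor membranes in 50 mM Tris, 10 mM MgCl2, 0.1% BSA, pH 7.4; nonspecific binding with 1 μM AVP.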

The term Ki denotes a measure of affinity in units of concentration, obtained from inhibition or displacement. Lower therefore signals tighter binding.

In the case of `CCOc1ccccc1C1(N2CCN(c3ccncc3)CC2)C(=O)N(S(=O)(=O)c2ccc(Cl)cc2F)c2ccc(C#N)cc21` (racemic) [Example 78, (±)-5-Cyano-1-(4-chloro-2-fluoro-benzenesulphonyl)-3-(2-ethoxyphenyl)-3-(4-pyridin-4-yl-piperazin-1-yl)-2,3-dihydro-1H-indol-2-one], the inhibition constant Ki lay within 50 to 500 nM.
On to `CCOc1ccc(OC)cc1C1(N2C[C@@H]3C[C@H]2CN3c2ccncc2)C(=O)N(S(=O)(=O)c2ccc(OC)cc2OC)c2ccc(C#N)cc21` (stereo partly drawn) [Example 52, 5-Cyano-1-(2,4-dimethoxy-benzenesulphonyl)-3-(2-ethoxy-5-methoxyphenyl)-3-((1S,4S)-5-pyridin-4-yl-2,5-diaza-bicyclo[2.2.1]hept-2-yl)-2,3-dihydro-1H-indol-2-one], for which the inhibitory constant (Ki) was less than 50 nM.
Consider `CCOc1ccccc1C1(N2CCN(c3ccncc3)CC2)C(=O)N(S(=O)(=O)c2ccc(OC)cc2OC)c2ccc(-c3ccco3)cc21` (stereo not drawn) [Example 47, 1-(2,4-Dimethoxy-benzenesulphonyl)-3-(2-ethoxyphenyl)-5-furan-2-yl-3-(4-pyridin-4-yl-piperazin-1-yl)-1,3-dihydro-indol-2-one], for which the Ki was in the range of 50 to 500 nM.
As for `CCOc1ccccc1C1(N2CCN(c3ccnc(CC)c3)CC2)C(=O)N(S(=O)(=O)c2ccc(OC)cc2OC)c2ccc(C#N)cc21` (racemic) [Example 93, (±)-5-Cyano-1-(2,4-dimethoxy-benzenesulphonyl)-3-(2-ethoxyphenyl)-3-[4-(2-ethyl-pyridin-4-yl)-piperazin-1-yl]-2,3-dihydro-1H-indol-2-one], the inhibition constant Ki was less than 50 nM.
For the compound `CCOc1ccccc1C1(N2CCN(c3ccncc3)CC2)C(=O)N(S(=O)(=O)c2ccc(CC)cc2)c2ccc(C#N)cc21` (racemic) [Example 90, (±)-5-Cyano-3-(2-ethoxyphenyl)-1-(4-ethyl-benzenesulphonyl)-3-(4-pyridin-4-yl-piperazin-1-yl)-2,3-dihydro-1H-indol-2-one], the Ki was 50 to 500 nM.
Consider `CCOc1ccccc1C1(N2CCN(c3ccncc3)CC2)C(=O)N(S(=O)(=O)c2ccc(C)cc2OC)c2ccc(C#N)cc21` (stereo not drawn) [Example 9, 5-Cyano-3-(2-ethoxyphenyl)-1-(2-methoxy-4-methyl-benzenesulphonyl)-3-(4-pyridin-4-yl-piperazin-1-yl)-2,3-dihydro-1 H-indol-2-one], for which the Ki was 50 to 500 nM.
`COc1ccc(C2(N3CCN(c4ccncc4)CC3)C(=O)N(S(=O)(=O)c3ccc(OC)cc3OC)c3ccc(Cl)cc32)c(OC)c1` (stereo not drawn) [Example 30, 5-Chloro-1-(2,4-dimethoxy-benzenesulphonyl)-3-(2,4-dimethoxyphenyl)-3-(4-pyridin-4-yl-piperazin-1-yl)-1,3-dihydro-indol-2-one, HCl salt] gave a Ki of less than 50 nM.
`COc1ccc(S(=O)(=O)N2C(=O)C(c3ccccc3OC)(N3CCN(c4ccncc4)CC3)c3cc(Cl)ccc32)cc1OC` (stereo not drawn) [Example 12, 5-Chloro-1-(3,4-dimethoxy-benzenesulphonyl)-3-(2-methoxyphenyl)-3-(4-pyridin-4-yl-piperazin-1-yl)-1,3-dihydro-indol-2-one] displayed an inhibition constant Ki of 50 to 500 nM.
With `CCOc1ccc(OC)cc1C1(NCCNc2ccncc2)C(=O)N(S(=O)(=O)c2ccc(OC)cc2OC)c2ccc(C#N)cc21` (stereo not drawn) [Example 122, 5-Cyano-1-(2,4-dimethoxybenzenesulphonyl)-3-(2-ethoxy-5-methoxyphenyl)-3-[2-(pyridin-4-ylamino)-ethylamino]-2,3-dihydro-1H-indol-2-one], the Ki is less than 50 nM.
